In patent US20250290151A1, “Differentially-Methylated Regions of the Genome Useful as Markers of Embryo-Adult Transitions” (priority 2019, published 2025):
“And” between values parts separate entries of the source, which are not always exact repeats. Equal entries are not always repeated.

Tests used:
adult bone marrow MSCs = test: H2O2-mediated apoptosis (survival) before and after knock-down of COX7A1; type: cell-based, human; conditions: 300 uM H2O2
Protocol: (§1) Similarly, normal pre-EFT vascular progenitors were more sensitive to apoptosis at 37 uM of camptothecin (39% apoptosis) compared to adult aortic endothelial counterparts (25.5% apoptosis). In addition, H2O2-mediated apoptosis was measured in post-EFT cells (adult bone marrow MSCs) before and after knock-down of COX7A1 expression.

[1] = tested on: fibrosarcoma cell line HT1080; test: TUNEL apoptosis assay after camptothecin, HT1080 expressing COX7A1 vs GFP control; type: cell-based, human; conditions: 0, 0.37 and 37 uM camptothecin, 24 h, p<0.05
Protocol: (§2) The pre-EFT (DC) fibrosarcoma cell line HT1080 was infected with lentivirus expressing COX7A1 together with a control line expressing green fluorescent protein (GFP). The resulting cells were treated with 0, 0.37, and 37 uM camptothecin to generate a DNA damage response and apoptosis. TUNEL (TdT-mediated dUTP-X nick end labeling) adds label to termini of ssDNA and dsDNA. Readout used was fluorescent nuclei read by microscopy. In brief, cell lines were cultured in 96-well plates at 5000 cells/well and grown over night. The following day, the growth medium was removed and replaced with growth medium containing compounds and controls. After 24 h, the cells are fixed for 20 minutes using 4% PFA. Plates are stored at 4 deg C. in PBS until processing. Fixed cells were permeabilized with 0.1% Triton X-100 and 0.1% sodium citrate for 2 minutes on ice. […] 9 images per well were collected and analyzed for total cell number and number of cells stained for apoptosis.
as §1

[2] = tested on: adult aortic endothelial counterparts; test: TUNEL apoptosis assay after camptothecin, adult aortic endothelial cells; type: cell-based, human; conditions: 37 uM camptothecin, 24 h
Protocol: as §2, §1

[3] = tested on: normal pre-EFT vascular progenitors; test: TUNEL apoptosis assay after camptothecin, pre-EFT vascular progenitors; type: cell-based, human; conditions: 37 uM camptothecin, 24 h
Protocol: as §2, §1

[4] = tested on: xenograft breast tumors derived from the breast cancer cell line MCF-7; test: COX7A1 expression in MCF-7 xenograft breast tumors after doxorubicin; type: in vivo; conditions: MCF-7 xenograft breast tumors treated with doxorubicin; controls 3.84 and 4.52
Description: The present invention instead teaches the contrary, that these surviving CSCs are instead cancer cells that display a post-EFT pattern (i.e. a more mature pattern) of gene expression. Using the expression of the gene COX7A1 as a transcriptional marker of pre- or post-EFT cells wherein COX7A1 is expressed in post-EFT cells, we observe that pancreatic cancer with ablated KRAS leading to pancreatic CSCs, results in increased COX7A1 and CAT (also a post-EFT marker), not decreased as predicted by current models (FIG. 10). In addition, the treatment of xenograft breast tumors derived from the breast cancer cell line MCF-7 with the anti-tumor anthracycline antibiotic doxorubicin results in COX7A1 RFU levels of 5.04 and 5.57 compared to controls of 3.84 and 4.52 in controls, again indicative of the more mature state of surviving cells following chemotherapy. In addition, in the example of rectal cancer, levels of COX7A1 expression were 92.7 RFUs following radiotherapy compared to 75 RFUs in untreated rectal cancer (p<0.05). […]

OO [H2O2]
cells surviving (adult bone marrow MSCs; MSCs after knockdown of COX7A1 (iTR modality), p<0.05): 59.8% | cells surviving (adult bone marrow MSCs; normal adult bone marrow MSCs): 82.4%

CC[C@@]1(O)C(=O)OCc2c1cc1n(c2=O)Cc2cc3ccccc3nc2-1 [camptothecin]
sensitivity to apoptosis (TUNEL) [1]: significantly decreased sensitivity to apoptosis | apoptosis [2]: 25.5% | apoptosis [3]: 39%

COc1cccc2c1C(=O)c1c(O)c3c(c(O)c1C2=O)C[C@@](O)(C(=O)CO)C[C@@H]3O[C@H]1C[C@H](N)[C@H](O)[C@H](C)O1 [doxorubicin]
COX7A1 RFU levels [4]: 5.04 RFU and 5.57 RFU
